Results from PMC9744210, “Discovery of the SHP2 allosteric inhibitor 2-((3R,4R)-4-amino-3-methyl-2-oxa-8-azaspiro[4.5]decan-8-yl)-5-(2,3-dichlorophenyl)-3-methylpyrrolo[2,1-f][1,2,4] triazin-4(3H)-one” (Journal of Enzyme Inhibition and Medicinal Chemistry, 2022).

Molecular target: T1, SHP2 (Homo sapiens, UniProt Q06124)
T1 construct: 6xHis (N, cleaved yes); TEV cleavage site (N, cleaved yes); made in house; host or cells: E. coli BL21 (DE3)
T1 sequence (Q06124 1-525): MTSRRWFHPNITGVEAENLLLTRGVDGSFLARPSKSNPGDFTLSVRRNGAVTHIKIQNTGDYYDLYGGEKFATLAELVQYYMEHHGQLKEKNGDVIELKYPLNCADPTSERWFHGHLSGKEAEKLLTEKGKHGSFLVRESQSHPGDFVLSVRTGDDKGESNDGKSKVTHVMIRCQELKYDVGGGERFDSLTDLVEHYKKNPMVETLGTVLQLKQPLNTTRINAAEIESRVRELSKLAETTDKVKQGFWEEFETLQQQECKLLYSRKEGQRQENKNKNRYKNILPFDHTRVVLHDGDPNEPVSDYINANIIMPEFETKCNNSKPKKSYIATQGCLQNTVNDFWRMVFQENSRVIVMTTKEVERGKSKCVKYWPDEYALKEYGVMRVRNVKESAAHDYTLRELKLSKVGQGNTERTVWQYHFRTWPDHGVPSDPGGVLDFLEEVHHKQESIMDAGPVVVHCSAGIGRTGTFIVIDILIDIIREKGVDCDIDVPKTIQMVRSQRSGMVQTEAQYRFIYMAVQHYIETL
Test: SHP2 phosphatase activity inhibition, DiFMUP prompt fluorescence assay
Assay type: biochemical
Conditions: 0.5 nM SHP2 activated with 0.125 µM bis-tyrosyl-phosphorylated peptide; substrate DiFMUP 200 μM; room temperature; read-out: Inhibitory activity IC50
Experimental: The measurement of the catalytic activity of SHP2 is using the surrogate substrate 6,8-difluoro-4-methylumbelliferyl phosphate (DiFMUP) in a prompt fluorescence assay format.[14]^,[22]^,[23] In special, the phosphatase reaction was performed at room temperature in a 384-well black plate (Corning) with a total volume of 20 μL. The assay buffer contained 60 mM HEPES, pH7.2, 75 mM NaCl, 75 mM KCl, 1 mM EDTA, 5 mM DTT, and 0.05% Triton X-100.
After 60 min incubation at room temperature, the surrogate substrate DiFMUP (Thermo, Cat: D6567, 200 μM) was added to the catalytic reaction. After 30 min incubation at room temperature, the fluorescence signal was measured at the excitation and emission wavelengths of 340 nm and 450 nm respectively with a plate reader (Tecan Spark). The curves of the inhibitor dose–response were analysed using normalised IC50 regression curve fitting with control-based normalisation.

| IC50 [nM] | SMILES |
| --- | --- |
| 104 | C[C@H]1OCC2(CCN(c3nn4cnc(-c5cccc(Cl)c5Cl)c4c(=O)n3C)CC2)[C@H]1N [PB17-021-01] |
| 38.9 | C[C@H]1OCC2(CCN(c3nn4ccc(-c5cccc(Cl)c5Cl)c4c(=O)n3C)CC2)[C@H]1N [PB17-026-01, 2-((3R,4R)-4-amino-3-methyl-2-oxa-8-azaspiro[4.5]decan-8-yl)-5–(2,3-dichlorophenyl)-3-methylpyrrolo[2,1-f][1,2,4]triazin-4(3H)-one] |
| 168 | C[C@H]1OCC2(CCN(c3nn4ccc(-c5ccncc5)c4c(=O)n3C)CC2)[C@H]1N [PB17-035-01] |
| 645 | Cn1c(N2CCC(C)(CN)CC2)nn2ccc(-c3cccc(Cl)c3Cl)c2c1=O [PB17-036-01] |
